Experimental data reported in ChEMBL document CHEMBL1146439, “Novel mono-tetrahydrofuran ring acetogenins, from the bark of Annona squamosa, showing cytotoxic selectivities for the human pancreatic carcinoma cell line, PACA-2” (J Nat Prod, 1997).
Converted amounts (≈) assume the structure as drawn.

Experiments:
A549 = assay: Cytotoxicity against human A549 cells after 7 days by MTT assay; assay type: functional; details: A549, 168 h, read-out: ED50 (the source's name)
A498 = assay: Cytotoxicity against human A498 cells after 7 days by MTT assay; assay type: functional; details: A498, 168 h, read-out: ED50 (the source's name)
MIA PaCa-2 = assay: Cytotoxicity against human MIAPaCa2 cells after 7 days by MTT assay; assay type: functional; details: for EC50: Homo sapiens, MIA PaCa-2, 168 h, read-out: ED50 (the source's name)
HT-29 = assay: Cytotoxicity against human HT-29 cells after 7 days by MTT assay; assay type: functional; details: HT-29, 168 h, read-out: ED50 (the source's name)
PC-3 = assay: Cytotoxicity against human PC3 cells after 7 days by MTT assay; assay type: functional; details: PC-3, 168 h, read-out: ED50 (the source's name)
MCF7 = assay: Cytotoxicity against human MCF7 cells after 7 days by MTT assay; assay type: functional; details: MCF7, 168 h, read-out: ED50 (the source's name)
[1] = Toxicity against brine shrimp; assay type: organism-based; details: artemia, in vivo

| SMILES | EC50 (A549) [µg/mL] | EC50 (A498) [µg/mL] | ED50 (MIA PaCa-2) [×10⁻⁴ ug/ml] | EC50 (HT-29) [µg/mL] | EC50 (PC-3) [µg/mL] | EC50 (MCF7) [µg/mL] | LC50 [1] [µg/mL] | EC50 (MIA PaCa-2) [µg/mL] |
| --- | --- | --- | --- | --- | --- | --- | --- | --- |
| CCCCCCCCCCCC[C@@H](O)[C@H]1CC[C@H]([C@H](O)CCCCCC(=O)CCCC[C@@H](O)CC2=C[C@H](C)OC2=O)O1 | 0.27 (≈ 0.454 µM) | > 1 | 2.4 | > 1 | 0.0096 (≈ 0.0161 µM) | > 1 | 0.41 (≈ 0.689 µM) |  |
| CCCCCCCCC/C=C\CC[C@@H](O)[C@H]1CC[C@H]([C@H](O)CCCCCC(=O)CCCC[C@@H]2CC(CC(C)=O)C(=O)O2)O1 (mixture of isomers) | > 1 | > 1 |  | > 1 | 0.032 | > 1 | 0.44 | 0.0022 |
| COc1cccc2c1C(=O)c1c(O)c3c(c(O)c1C2=O)C[C@@](O)(C(=O)CO)C[C@@H]3O[C@H]1C[C@H](N)[C@H](O)[C@H](C)O1 [DOXORUBICIN] | 0.0053 (≈ 0.00975 µM) | 0.01 (≈ 0.0184 µM) |  | 0.02 (≈ 0.0368 µM) | 0.032 (≈ 0.0589 µM) | 0.2 (≈ 0.368 µM) | 0.26 (≈ 0.478 µM) | 0.018 (≈ 0.0331 µM) |
| CCCCCCCCCCCC[C@H](O)[C@H]1CC[C@H]([C@H](O)CCCCCC(=O)CCCC[C@@H](O)CC2=C[C@H](C)OC2=O)O1 [MOSIN B] | 0.94 (≈ 1.58 µM) | > 1 | 2.5 | > 1 | 0.35 (≈ 0.588 µM) | > 1 | 0.29 (≈ 0.487 µM) |  |
| CCCCCCCCCCCC[C@H](O)[C@@H]1CC[C@H]([C@H](O)CCCCCC(=O)CCCC[C@@H](O)CC2=C[C@H](C)OC2=O)O1 [MOSIN C] | 0.6 (≈ 1.01 µM) | > 1 | 1.2 | > 1 | > 1 | > 1 | 0.15 (≈ 0.252 µM) |  |
